Key:
[1] = DPPH radical scavenging activity
Protocol: The 2,2-diphenyl-1-picrylhydrazyl (DPPH) radical scavenging activity was evaluated as described (Gupta D et al., BMC Complement Altem Med, 2011; 11:13. doi: 10.1186/1472-6882-11-13) with modifications. In this assay, 0.2 mL of sample at different concentrations (1-1000 μg/mL) was added to 1.8 mL of DPPH solution (0.11 mM) in 80% ethanol. The mixture was then incubated for 30 minutes and at room temperature in the dark. The absorbance at 517 nm was then measured with ascorbic acid and butylhydroxytoluene (BHT) as reference antioxidants. A 0.2 mL of solvent extract dilution added to 1.8 mL of DPPH solution (0.11 mM) in 80% ethanol serve as the control. Two independent experiments were performed in triplicate. The percentage inhibition was calculated relative to the control using the equation, inhibition of DPPH radical (%)=(1−(Abssample/Abscontrol))×100.

STAT-3 phosphorylation = test: Interleukin-6 induced STAT-3 phosphorylation; type: cell-based; conditions: IL-6 induced STAT-3 phosphorylation; 100 uM

Q: Which “DPPH radical scavenging activity, %” value ([1]; 300 μM) does the source give for `O=C1O[C@H]([C@@H](O)CO)C(O)=C1O` [Ascorbic acid, ascorbic acid] here?
A: 37.60 ± 0.47%

Q: For `O=c1c(-c2ccc(O)cc2)coc2cc(O)cc(O)c12` [Genestain], which “% Inhibition” value (STAT-3 phosphorylation) is on record?
A: 96.25%

Q: With `O=C(NC(Cc1cc(=O)[nH]c2ccccc12)C(=O)O)c1ccc(Cl)cc1` (stereo not drawn) [Rebamipde, rebamipide] as the molecule, how does the “DPPH radical scavenging activity, %” value ([1]; 100 μg/mL) read?
A: 0.93 ± 0.83%
